{"source": "patent US11149028B2", "about": "“Methods for treating melanoma using small molecules” (NOVA SOUTHEASTERN UNIVERSITY, priority 2016, dated 2021)", "key": {"[1]": {"system": "cleaved lamin A/C in WM266-4 cells", "assay": "Western blotting for lamin A/C cleavage", "format": "cell-based, human", "experimental": "(§1) 1×10^6 of WM266-4 or M14 cells were seeded in 3 mL of E-MEM or RPMI-1640 medium supplemented with 10% FBS and 1% penicillin/streptomycin in 6 cm plates. […] After washing with TBST, the membranes were treated with chemilumiscent horseradish peroxidase detection reagent (Thermo Scientific, Cat #32209) and exposed to autoradiography film (Denville Scientific, Inc., Metuchen, N.J., USA, cat #E3018). ImageJ software (NIH, Bethesda, Md.) was used to quantify the intensity of proteins bands. The protein bands were normalized against loading controls."}, "[2]": {"system": "LC3-II and beclin-1 in WM266-4 cells", "assay": "Western blotting for LC3 and beclin-1, WM266-4", "format": "cell-based, human", "experimental": "as §1, with “controls (β-actin) and expressed as a fold of an untreated control.” for “controls.”"}, "M14 cells": {"system": "M14 cells", "details": "time course 4-72 h; time stated at the place", "experimental": "ApoTox-Glo™ Triplex Assay which allows one to simultaneously assess the effect of small molecules on cell viability, toxicity, caspase activity, and cell cycle all in the same well (Niles, A. L.; Moravec, R. A.; Riss, T. L. In vitro viability and cytotoxicity testing and same-well multi-parametric combinations for high throughput screening. Curr Chem Genomics 2009, 3, 33-41) was utilized. First, a mixture of 2 fluorogenic substrates was added to cells. GF-AFC substrate is cell-permeant and non-lytic to cells, allowing the measurement of active protease inside live cells. The second substrate (bis-AAF-R110 Substrate) is not cell-permeable and is only cleaved when proteases are released from cells due to the loss of membrane integrity typical of cell death. This step generates an inversely correlated measurement of cell viability and toxicity.\nThe second addition is luminogenic DEVD-peptide substrate for caspase-3/7 and Ultra-Glo™ Recombinant Thermostable Luciferase. Caspase-3/7 cleavage of the substrate generates a luminescent signal which correlates with caspase-3/7 activation as a key indicator of apoptosis. As markers for cytotoxicity and apoptosis are transient, the assay was conducted in time course format with time points at 4, 24, 48, and 72 h.\nM14 #5 cells were plated in 384-well format at a density of 1,250 cells in 5 μL of serum-free DMEM media and incubated at 37° C. in 5% CO2 for 4 h. Control and test compounds were serially diluted in a ratio of 1:3 and added to wells in 4 μL. […] Plates were incubated at 37° C. in 5% CO2 for 4, 24, 48, and 72 h. At the end of each time point Viability/Cytotoxicity™ Reagent was prepared containing 400 μM glycylphenylalanyl-aminofluorocoumarin (GF-AFC) substrate (cleavable by live cell proteases) and 400 μM bis-alanylalanyl-phenylalanyl-rhodamine 110 (bis-AAF-R110) substrate (cleavable by dead cell proteases). 4 μL of the Viability/Cytotoxicity™ Reagent was used per well. The plate was incubated for 30 min at 37° C. Fluorescence was read at λEx=400 nm and λEm=505 nm for GF-AFC and λEx=485 nm and λEm=520 nm for bis-AAF-R110 on the BioTek Synergy™ 4 Multi-Mode Microplate Reader. Caspase-Glo® 3/7 Reagent was then added in 12 μL volume. The plate was incubated for 30 min at room temperature and luminescence was measured on the BioTek Synergy™ 4 Multi-Mode Microplate Reader."}, "WM266-4 cells [3]": {"system": "WM266-4 cells", "assay": "CellTiter-Glo cell viability assay, WM266-4 (including rescue assays)", "format": "cell-based, human", "experimental": "Cells were plated in 384-well plates in 8 μL of media. Test compounds and dabrafenib (pharmacological assay control) were prepared as 10-point, 1:3 serial dilutions starting at 300 μM, then added to the cells (4 μL per well) using the Biomek Plates were incubated for 72 h at 37° C., 5% CO2 and 95% relative humidity. After incubation, 4 μL of CellTiter-Glo® (Promega cat #: G7570) were added to each well, and incubated for 15 min at room temperature. Luminescence was recorded using a Biotek Synergy H4 multimode microplate reader. Viability was expressed as a percentage relative to wells containing media only (0%) and wells containing cells treated with DMSO only (100%). Three parameters were calculated on a per-plate basis: (a) the signal-to-background ratio (SB); (b) the coefficient for variation [CV; CV=(standard deviation/mean)×100)] for all compound test wells; and (c) the Z′-factor (18). The IC50 value of the pharmacological control (dabrafenib, LC Laboratories #G-4408) was also calculated to ascertain the assay robustness. In case of viability rescue assays, cells were pre-treated with caspase, calpain, and autophagy inhibitors for 1-3 h before addition of test compounds. Time course viability assay was done with luminescence measurements performed at 4, 24, 48, and 72 h."}, "calpain in WM266-4 cells": {"system": "calpain in WM266-4 cells", "assay": "Calpain activity assay (Calpain-Glo)", "format": "cell-based, human", "experimental": "The Calpain-Glo Protease Assay (Promega cat #) was used to measure the calpain enzyme activity in live cells, according to the manufacturer's instructions. 1,250 of WM-266-4 cells were plated in 384-well white TC-treated plates in 5 μL of serum-free EMEM media. The cells were incubated overnight at 37° C., 5% CO2 and 95% relative humidity and 5 μL of test compounds 2155-14, (100 μM), calpain inhibitor III and PD151746 (25 μM) were added alone or in combination and incubated at 37° C., 5% CO2, and 95% relative humidity for 0.5, 4, and 24 h. After incubation, 10 μL, of a freshly prepared dilution of the Calpain-Glo Reagent stock solution (consisting of Suc-LLVY-Glo™ substrate, Calpain-Glo™ buffer, Luciferin Detection Reagent, and CaCl2) was added to cells at above mentioned times and luminescence was recorded with a Neo 2 microplate reader (Biotek Inc). All experiments were performed in triplicate and the values provided are the calculated average of at least three independent experiments."}, "WM266-4 cells [4]": {"system": "WM266-4 cells", "assay": "Annexin V flow cytometry assay", "format": "cell-based, human", "details": "4 h", "source_text": "After 4, 24 and 48 hrs of compound exposure the adherent and floating cells were combined and stained using the TACS Annexin V-FITC Apoptosis detection kit (Trevigen Inc, Gaithersburg, Md., USA) using manufacturer's protocol. Viable, necrotic, early and late apoptotic cells were counted using Accuri flow cytometer as per the manufacturer instructions."}, "[5]": {"details": "10 μM inhibitor 3 h, then 100 μM 2155-14, 24 h"}, "[6]": {"details": "50 μM inhibitor, then 100 μM 2155-14"}, "[7]": {"details": "25 μM inhibitor, 100 μM 2155-14"}, "[8]": {"details": "cells treated with 100 μM 2155-14, inhibitor 10 μM"}}, "note": "Entries after “also recorded” stand apart in the source; their conditions may differ. Peptide text beside a SMILES is read from it. * marks the point of attachment. Cbz = O=C(OCc1ccccc1)*; CH2F = FC*"}
{"molecule": "COC(=O)C[C@H](NC(=O)[C@H](C)NC(=O)[C@@H](NC(=O)OCc1ccccc1)C(C)C)C(=O)CF", "note": "[pan-caspase inhibitor, Z-VAD-FMK, reference compound] (Cbz-Val-Ala-Asp(OMe)-CH2F)", "values": [{"measurement": "lamin A/C cleavage after caspase inhibitor pre-treatment", "setting": "[1]; [5]", "value": "Only partial inhibition of lamin A/C cleavage"}, {"measurement": "lamin A/C cleavage after caspase inhibitor pre-treatment", "setting": "[1]; [6]", "value": "almost completely abrogated"}]}
{"molecule": "COC(=O)C[C@H](NC(=O)[C@H](C)NC(=O)[C@@H](NC(=O)[C@H](CC(=O)OC)NC(=O)[C@@H](NC(=O)OCc1ccccc1)C(C)C)C(C)C)C(=O)CF", "note": "[caspase 2 inhibitor, Z-VDVAD-FMK, reference compound] (Cbz-VD(OMe)VAD(OMe)-CH2F)", "values": [{"measurement": "lamin A/C cleavage after caspase inhibitor pre-treatment", "setting": "[1]; [6]", "value": "to the lesser extent"}]}
{"molecule": "CC[C@H](C)[C@H](NC(=O)OCc1ccccc1)C(=O)N[C@@H](CCC(=O)OC)C(=O)N[C@H](C(=O)N[C@@H](CC(=O)OC)C(=O)CF)[C@@H](C)O", "note": "[caspase 8 inhibitor, Z-IETD-FMK, reference compound] (Cbz-IE(OMe)TD(OMe)-CH2F)", "values": [{"measurement": "lamin A/C cleavage after caspase inhibitor pre-treatment", "setting": "[1]; [5]", "value": "Only partial inhibition of lamin A/C cleavage"}, {"measurement": "lamin A/C cleavage after caspase inhibitor pre-treatment", "setting": "[1]; [6]", "value": "almost completely abrogated"}]}
{"molecule": "CN(C)c1cccc2c(S(=O)(=O)NCCCC[C@@H](CN3CCC[C@H]3CN3C(=O)C(=O)NC[C@@H]3Cc3ccccc3)N3C[C@H](Cc4ccc(O)cc4)N(CCc4ccccc4)C(=O)C3=O)cccc12", "note": "[Compound 2476-66.2, N—((S)-6-((S)-2-(((S)-6-benzyl-2,3-dioxopiperazin-1-yl)methyl)pyrrolidin-1-yl)-5-((S)-5-(4-hydroxybenzyl)-2,3-dioxo-4-phenethylpiperazin-1-yl)hexyl)-5-(dimethylamino)naphthalene-1-sulfonamide]", "values": [{"measurement": "lamin A/C cleavage", "setting": "[1]; 2.5 μM, 24 hr", "value": "no cleavage of lamin A/C"}, {"measurement": "lamin A/C western blot", "setting": "[1]; 5 μM, 24 hr", "value": "striking increase of cleaved lamin A/C"}, {"measurement": "LC3-II level", "setting": "[2]; 2.5 μM, 24 hr", "value": "no cleavage of lamin A/C or increase of levels of LC3-II was detected"}, {"measurement": "LC3 western blot", "setting": "[2]; 5 μM, 24 hr", "value": "neither of LC3 isoforms nor actin were detected"}]}
{"molecule": "CC(C)(C)c1ccc(C(O)CCCN2CCC(C(O)(c3ccccc3)c3ccccc3)CC2)cc1", "note": "(stereo not drawn) [terfenadine, reference compound]", "values": [{"measurement": "ApoTox caspase-3/7 activity", "setting": "M14 cells", "value": "early caspase activity spike (4-24 h)"}, {"measurement": "ApoTox viability (live cell protease)", "setting": "M14 cells", "value": "early loss of cell viability"}]}
{"molecule": "C[C@H](CCC(=O)O)C[C@H](C)C[C@H](C)C(=O)/C=C(\\O)[C@H](C)C[C@H](C)C/C=C/[C@@H](C)[C@@H](O)[C@@H](C)[C@@H](O)C[C@@H]1CC[C@@](C)([C@H]2CC[C@@](C)([C@@H](C)O)O2)O1", "note": "[ionomycin, reference compound]", "values": [{"measurement": "ApoTox caspase-3/7 activity", "setting": "M14 cells", "value": "did not induce a spike in caspase activity at any of the time points"}, {"measurement": "ApoTox cytotoxicity", "setting": "M14 cells", "value": "strong cytotoxicity response"}, {"measurement": "ApoTox viability (live cell protease)", "setting": "M14 cells", "value": "dose dependent loss of viability as early as 4 h"}]}
{"molecule": "MDL-28170 [reference compound]", "values": [{"measurement": "viability, combination with 2155-14", "setting": "WM266-4 cells [3]; [7]", "value": "even more pronounced negative effect on viability of cells than either compound alone"}, {"measurement": "calpain activity induced by 2155-14 after calpain inhibitor pre-treatment", "setting": "calpain in WM266-4 cells; [7]", "value": "shut down calpain activity induced by 2155-14 at 30 min and 4 h but not at 24 h"}]}
{"molecule": "CN[C@@H]1C[C@H]2O[C@@](C)([C@@H]1OC)n1c3ccccc3c3c4c(c5c6ccccc6n2c5c31)C(=O)NC4", "note": "[staurosporine, reference compound]", "values": [{"measurement": "apoptosis detected", "setting": "WM266-4 cells [4]", "value": "apoptosis was detected only in staurosporine-treated cells"}]}
{"molecule": "CCN(CCO)CCCC(C)Nc1ccnc2cc(Cl)ccc12", "note": "(stereo not drawn) [hydroxychloroquine, reference compound]", "values": [{"measurement": "cleaved lamin A/C level after autophagy inhibitor pretreatment", "setting": "[1]; [8]", "value": "increased levels"}, {"measurement": "LC3-II level after autophagy inhibitor pretreatment", "setting": "[2]; [8]", "value": "increased levels"}]}
{"molecule": "CCCNC(=O)[C@H]1O[C@@H]1C(=O)N[C@H](C(=O)N1CCC[C@H]1C(=O)O)[C@@H](C)CC", "note": "[CA074, reference compound]", "values": [{"measurement": "viability of WM266-4 cells", "setting": "WM266-4 cells [3]; 24 h, 20 μM cathepsin B inhibitor", "value": 25, "unit": "%"}, {"measurement": "increase of calpain activity", "setting": "calpain in WM266-4 cells; 20 μM, from 30 min, persisted at 4 and 24 h", "value": "~5", "unit": "fold"}]}
{"molecule": "O=C(CCCC[C@@H]1SC[C@@H]2NC(=O)N[C@@H]21)NCCCC[C@@H](CN1CCC[C@H]1CN1C(=O)C(=O)NC[C@@H]1Cc1ccccc1)N1C[C@H](Cc2ccc(O)cc2)N(CCc2ccccc2)C(=O)C1=O", "note": "[Compound 2529-5, N—((S)-6-((S)-2-(((S)-6-benzyl-2,3-dioxopiperazin-1-yl)methyl)pyrrolidin-1-yl)-5-((S)-5-(4-hydroxybenzyl)-2,3-dioxo-4-phenethylpiperazin-1-yl)hexyl)-5-((3aS,4S,6aR)-2-oxohexahydro-1H-thieno[3,4-d]imidazol-4-yl)pentanamide]", "values": [{"measurement": "cleaved lamin A/C level", "setting": "[1]; 100 μM, 24 h", "value": "did not significantly increase; also recorded: had no effect on cleavage of lamin A/C"}, {"measurement": "LC3-II level", "setting": "[2]; 100 μM, 24 h", "value": "did not significantly increase"}, {"measurement": "IC50", "setting": "WM266-4 cells [3]; Homo sapiens, WM 266-4, 72 h, 72 h", "value": "> 100", "unit": "µM"}, {"measurement": "cytotoxicity at 100 µM", "setting": "WM266-4 cells [3]; Homo sapiens, WM 266-4, 100 μM, 72 h, read-out: maximal inhibition of cell viability", "value": 37, "unit": "%"}]}
{"molecule": "CC[C@H](C)[C@H](NC(=O)[C@H](CCC(=O)OC)NC(=O)[C@@H](NC(=O)OCc1ccccc1)C(C)C)C(=O)N[C@@H](CC(=O)OC)C(=O)CF", "note": "[caspase 6 inhibitor, Z-VEID-FMK, reference compound] (Cbz-VE(OMe)ID(OMe)-CH2F)", "values": [{"measurement": "lamin A/C cleavage after caspase inhibitor pre-treatment", "setting": "[1]; [5]", "value": "Only partial inhibition of lamin A/C cleavage"}, {"measurement": "lamin A/C cleavage after caspase inhibitor pre-treatment", "setting": "[1]; [6]", "value": "almost completely abrogated"}]}
